{"source": "patent CN116139126A", "about": "“表没食子儿茶素-3-没食子酸酯在制备嗜水气单胞菌的群体感应抑制剂中的应用” (Yueyang Yumeikang Bio Tech Co ltd, priority 2023, dated 2023)", "system": "hemolysin of Aeromonas hydrophila (嗜水气单胞菌 溶血素)", "assay": "Quantitative beta-hemolysin assay (5% rabbit red blood cells)", "type": "cell-based, Aeromonas hydrophila AH08", "data": [{"smiles": "O=C(O[C@@H]1Cc2c(O)cc(O)cc2O[C@@H]1c1cc(O)c(O)c(O)c1)c1cc(O)c(O)c(O)c1", "note": "[EGCG, 表没食子儿茶素-3-没食子酸酯]", "values": [{"measurement": "inhibition at 256 µg/mL", "setting": "Aeromonas hydrophila, Erythrocyte, 256 μg/ml, compared with blank control, read-out: inhibition rate of hemolysin", "value": 28.2, "unit": "%"}, {"measurement": "inhibition of hemolytic activity (in words)", "setting": "high concentration EGCG", "value": "显著抑制"}]}]}
